{"source": "patent US20190070136A1", "about": "(ASPIRO PHARMA LIMITED, priority 2017, published 2019)", "origin": "cited, not measured here", "data": [{"smiles": "O=NN(CCCl)C(=O)NCCCl", "note": "[Carmustine, 1,3-bis (2-chloroethyl)-1-nitrosourea]", "values": [{"measurement": "Log P", "value": 1.53}]}]}
